Values joined by “and” are separate entries in the source; they are usually repeats but may differ in a detail not shown here. Identical values can stand only once.
Columns and labels:
[1] = test system: Aggrecanase-1 (AGG-1) mRNA; assay: RT-PCR of AGG-1 mRNA in PDGF stimulated primary human chondrocytes; assay type: cell-based; details: primary human chondrocytes (non-OA joints)
Procedure: (§1) cDNA from Isolated Normal and Osteoarthritic Cartilage: A quantity of 1 μg total Isolated Normal or Osteoarthritic Cartilage RNA is treated with DNase (Ambion, Austin, Tex.) in DNase buffer (Ambion, Austin, Tex. in a quantity sufficient to make 10 μl total reaction volume and heated at 37° C. for 30 minutes. The DNase enzyme is inactivated by adding EDTA and heating at 75° C. for 5 min. cDNA is then synthesized from the reaction mixture above using Oligo dT12-18 with the Superscript Preamplification System (Life Technologies, Rockville, Md.). The final reaction volume is then adjusted to 300 μl. Cyclophilin RT-PCR is performed on each sample to allow comparative normalized PI3K, PKB, AGG-1, or COL-3 gene quantitation. Reverse transcriptase polymerase chain reaction (RT-PCR) for cyclophilin is first performed using 3 μl template utilizing the Expand Long PCR System (Roche Biochemicals, Indianapolis, Ind.). Cyclophilin RT-PCR is performed on each sample for 28 cycles to prevent saturation of the PCR products, whereas 35-40 cycles is necessary to detect less abundant genes. Loading dye is added to the 50 μl RT-PCR reaction mix, 10 μl of the dyed RT-PCR reaction mix is loaded onto a 4-20% TBE gradient gel (BioRad, Hercules, Calif.)) and separated at 200V for 45 min. The gel is stained in 1×TBE (Sigma, St. Louis, Mo.) solution containing SYBR green (1:10,000) (Molecular Probes, Eugene, Oreg.) for 1 hour and then scanned on the Storm 860—Blue Fluorescence/Chemifluorescence scanner (Molecular Dynamics, Division of Amersham Pharmacia, Piscataway, N.J.). Individual bands are quantitated using ImageQuant software (Molecular Dynamics, Division of Amersham Pharmacia, Piscataway, N.J.). The fluorescence value determined for each PCR band representing a particular gene is normalized against the fluorescence value for the cyclophilin band in the same donor sample.
(§2) Induction or Inhibition of PI3KI3K/PKB In Cultured Chondrocytes: In all studies described below chondrocytes were cultured in DMEM medium with or without 10% Fetal Bovine Serum (Invitrogen Life Technologies, Carlsbad, Calif.). […]

[2] = test system: Collagenase-3 protein secretion; assay: ELISA for COL-3 protein secretion in chondrocyte supernatants; assay type: cell-based, human; details: for Collagenase-3 protein in supernatant: 24 hr, control 2491 ± 147
Procedure: ELISA for COL-3—Chondrocyte culture cells are incubated in serum free media (DMEM) overnight, and then incubated for 1 hour in fresh serum free media without or with (50 ng/ml) PDGF-BB (Invitrogen-Life Technologies, Carlsbad, Calif.) is added to each well and incubated for an additional 24 hours. Cell culture supernatants are collected and the levels of COL-3 protein are determined for each treatment using Amersham (Piscataway, N.J.) human collagenase-3 ELISA. FIG. 5 depicts the ELISA of COL-3 protein secretion and inhibition by LY249002. Chondrocyte cells isolated as described above are incubated in serum free media overnight, and then incubated for 1 hour in fresh serum free medium (DMEM) with or without LY294002. Then 50 ng/ml PDGF-BB (Sigma, St. Louis, Mo.) is added to each well and incubated for an additional 24 hours. Chondrocyte cell culture supernatants are collected and the levels of COL-3 protein are determined for each treatment using the commercially available Amersham (Piscataway, N.J.) human collagenase-3 ELISA based assay.

[3] = test system: PI3K/PKB pathway (phospho-PKB); assay: Western blot of chondrocyte lysates probed with anti-phospho-PKB (activation of PI3K/PKB pathway by PDGF); assay type: cell-based; details: primary human chondrocytes (non-OA joints), two samples
Procedure: (§3) Induction or Inhibition of PI3KI3K/PKB In Cultured Chondrocytes: In all studies described below chondrocytes were cultured in DMEM medium with or without 10% Fetal Bovine Serum (Invitrogen Life Technologies, Carlsbad, Calif.). Cultured chondrocyte cells are incubated overnight in serum free medium (DMEM) and then treated, as one of the following types of samples, 1) control samples, by incubating the cultures for 24 hour in serum free medium (DMEM) 2) induced samples, by incubating the cultures for 24 hours in serum free medium containing the PI3K/PKB inducer PDGF-BB (Invitrogen—Life Technologies Carlsbad, Calif.) or 3) PI3K/PKB inhibited samples, by pre-incubating the samples for 1 hour with the PI3K/PKB inhibitor LY294002 (Sigma, St. Louis, Mo.) and then incubating the cultures for 24 hours in serum free medium (DMEM) containing the PDGF-BB. FIG. 3 depicts activation of PI3K/PKB expression by PDGF in primary human chondrocytes. FIG. 4 depicts LY249002 (2-(4-morpholinyl)-8-phenyl-4H-1-benzopyran-4-one) inhibition of PDGF activated PI3K/PKB expression in primary human chondrocytes.
Western Blotting—Cells are incubated in serum free medium (DMEM) overnight, and then incubated for 10 minutes in fresh serum free media containing PDGF-BB (50 ng/ml)+/−LY294002 (20 μM). Cells are washed in ice cold PBS, scraped and sonicated in ice cold lysis buffer containing 50 mM Tris pH 7.4, 1% NP-40, 0.25% Na deoxycholate, 150 mM NaCl, 1 mM EGTA, 1 mM PMSF, aprotinin, leupeptin, and pepstatin (all at 1 μg/ml 1 mM Na vanadate, 1 mM NaF, and 1 μM microcystin) (Sigma, St Louis, Mo.). The protein concentration of the lysate is determined using the micro bicinchoninic acid assay (Pierce, Rockford, Ill.) and 20 μg lysate is run per lane for phospho-PKB and phospho-forkhead and 5 μg for anti-His antibody [rabbit anti-phospho-PKB-Ser473 NEB, rabbit anti-phospho-FKHRL1-Thr32 NEB, mouse anti penta-His (Qiagen, Valencia, Calif.)]. Peroxidase labeled secondary antibodies are purchased from Jackson Laboratories (Bar, Harbor, Me.). Blots are visualized with ECL reagent (Amersham, Piscataway, N.J.). […]

Aggrecanase-1 mRNA = assay: Real time PCR, fold induction of Aggrecanase-1 mRNA in human articular chondrocytes; assay type: cell-based; details: chondrocytes from one OA patient
Procedure: (§4) Chondrocytes were isolated from 2 normal and 2 OA patents. Cells alone or those over expressing the dominant negative form of Akt (retroviral mediated gene transfer) were treated with IL-1 beta, OSM or IL-1 beta+OSM with and without the PI3K inhibitor LY294002. RNA was isolated and the levels of Agg-1, Col-3 mRNA were measured by real time PCR. All treatments in four different donors were done in duplicate.
(§5) Total RNA was isolated from pooled duplicate 96-well plates using Qiagen RNeasy 96 kit (Qiagen, Valencia, Calif.) according to the manufacturer's instructions. The optional on-column Dnase I digestion was employed to eliminate contaminating genomic DNA. First strand cDNA was synthesized using random primers with the High-Capacity cDNA Archive kit (PE Applied Biosystems, Foster City, Calif.) in a 100 ul reaction volume.
(§6) Real time PCR was performed in a 384-well format on the ABI Prism 7900HT Sequence Detection System (Applied Biosystems, Foster City, Calif.) using SYBR Green PCR Master Mix (Applied Biosystems, Foster City, Calif.). The 20 ul reaction contained 5 ul cDNA, 200 nM forward and reverse primers, and SYBR Green PCR Master Mix. The default cycling program (95° C. for 10′ and 40 cycles of 95° C., 15″, 60° C., 1′) was followed by a slow ramping step by which a melting curve is generated to confirm the specificity of the PCR product and the absence of primer dimers.
(§7) Amplification of GAPDH was used to standardize the amount of sample cDNA added to the reaction. Changes in gene expression were calculated using the Comparative Ct method which makes use of a calibrator sample. This is the sample with which all others will be compared and whose value is therefore set to 1. All other values are therefore expressed relative to the calibrator. The retroviral vector containing no cDNA insert represents the calibrator sample. The amount of target, relative to the calibrator is calculated according to the formula 2^□□CT as outlined in ABI User Bulletin #2 (PE Applied Biosystems, Foster City, Calif.).

[4] = test system: Collagenase-3 (MMP-13) mRNA; assay: Real time PCR, fold induction of Collagenase-3 (MMP-13) mRNA in human articular chondrocytes; assay type: cell-based; details: chondrocytes from one OA patient
Procedure: as §4, §5, §6, §7

[5] = test system: Collagenase-3 (COL-3) mRNA; assay: RT-PCR of COL-3 mRNA in PDGF stimulated primary human chondrocytes; assay type: cell-based; details: primary human chondrocytes (non-OA joints)
Procedure: as §1, §2

[6] = test system: PKB pathway (phospho-FKHRL1); assay: Western blot of chondrocyte lysates probed with anti-phospho-FKHRL1; assay type: cell-based; details: PDGF 50 ng/ml alone; primary human chondrocytes (non-OA joints); two samples
Procedure: as §3, with “FIG. 3 depicts activation of PI3K/PKB expression by PDGF in primary human chondrocytes. FIG. 4 depicts LY249002 (2-(4-morpholinyl)-8-phenyl-4H-1-benzopyran-4-one) inhibition of PDGF activated PI3K/PKB expression in primary human chondrocytes.” left out
Western Blotting—Cells are incubated in serum free medium (DMEM) overnight, and then incubated for 10 minutes in fresh serum free media containing PDGF-BB (50 ng/ml)+/−LY294002 (20 μM). […] The protein concentration of the lysate is determined using the micro bicinchoninic acid assay (Pierce, Rockford, Ill.) and 20 μg lysate is run per lane for phospho-PKB and phospho-forkhead and 5 μg for anti-His antibody [rabbit anti-phospho-PKB-Ser473 NEB, rabbit anti-phospho-FKHRL1-Thr32 NEB, mouse anti penta-His (Qiagen, Valencia, Calif.)]. […]

[7] = PDGF 50 ng/ml + LY294002 20 μM, listed as LY2490002
[8] = inhibitor + IL-1 + Oncostatin M
[9] = inhibitor + IL-1 + Oncostatin M, listed as LY 294002

In the case of O=c1cc(N2CCOCC2)oc2c(-c3ccccc3)cccc12 [LY294002, 2-(4-morpholinyl)-8-phenyl-4H-1-benzopyran-4-one], the “Aggrecanase-1 gene expression (PCR amplicon gel signal)” value (“Aggrecanase-1 gene expression” for short) ([1]; PDGF 50 ng/ml + LY294002 20 μM) is reported as 0, the “Aggrecanase-1 gene expression” value [1, 7] is reported as “inhibits the downstream production of mRNA for AGG-1 and COL-3” and the “Collagenase-3 protein in supernatant” value ([2]; 1 μM LY294002 in the presence of PDGF 50 ng/ml) is reported as 2374 ± 58 pg/mL. The “Collagenase-3 protein in supernatant” value ([2]; 5 μM LY294002 in the presence of PDGF 50 ng/ml) was 1555 ± 104 pg/mL, the “Collagenase-3 protein in supernatant” value ([2]; 20 μM LY294002 in the presence of PDGF 50 ng/ml) was 342 ± 8 pg/mL and the “Secretion of COL-3 protein (in words)” value ([2]; PDGF stimulated primary human chondrocytes) was “inhibits secretion of COL-3 protein”. For the same compound, the “Anti Phospho-PKB western blot signal” value ([3]; PDGF 50 ng/ml + LY294002 20 μM) was 4706 and 3408, the “Anti Phospho-PKB western blot signal” value [3, 7] was “decreases PDGF induced activation of PKB” and the “Fold Induction of mRNA, Aggrecanase-1” value (Aggrecanase-1 mRNA; [8]) was “blocked”. For the same compound, the “Fold Induction of mRNA, Aggrecanase-1” value (Aggrecanase-1 mRNA; [9]) was 49 fold, the “Fold Induction of mRNA, Aggrecanase-1” value (Aggrecanase-1 mRNA; inhibitor + IL-1) was 22 fold and the “Fold Induction of mRNA, Aggrecanase-1” value (Aggrecanase-1 mRNA; inhibitor + Oncostatin M) was 45 fold. For the same compound, the “Fold Induction of mRNA, Aggrecanase-1” value (Aggrecanase-1 mRNA; inhibitor + PDGF) was 2 fold, the “Fold Induction of mRNA, Collagenase-3” value [4, 8] was “blocked” and the “Fold Induction of mRNA, Collagenase-3” value [4, 9] was 19 fold. For the same compound, the “Fold Induction of mRNA, Collagenase-3” value ([4]; inhibitor + IL-1) was 5 fold, the “Fold Induction of mRNA, Collagenase-3” value ([4]; inhibitor + Oncostatin M) was 10 fold and the “Fold Induction of mRNA, Collagenase-3” value ([4]; inhibitor + PDGF) was 2 fold. For the same compound, the “Collagenase-3 gene expression (PCR amplicon gel signal)” value (from here on “Collagenase-3 gene expression”) ([5]; PDGF 50 ng/ml + LY294002 20 μM) was 302 and the “Collagenase-3 gene expression” value [5, 7] was “inhibits the downstream production of mRNA for AGG-1 and COL-3”.
In the case of Interleukin-1 [IL-1], the “Fold Induction of mRNA, Aggrecanase-1” value (Aggrecanase-1 mRNA; inducer alone, untreated 2) is reported as 180 fold and the “Fold Induction of mRNA, Collagenase-3” value ([4]; inducer alone, untreated 1) is reported as 150 fold.
For oncostatin M, the “Fold Induction of mRNA, Aggrecanase-1” value (Aggrecanase-1 mRNA; inducer alone, untreated 2) was 221 fold and the “Fold Induction of mRNA, Collagenase-3” value ([4]; inducer alone, untreated 1) was 63 fold.
In the case of platelet-derived growth factor [PDGF], the “Aggrecanase-1 gene expression” value ([1]; PDGF 50 ng/ml alone) is reported as 418, the “Anti Phospho-PKB western blot signal” value ([3]; PDGF 50 ng/ml alone) is reported as 17940 and 22369 and the “Fold Induction of mRNA, Aggrecanase-1” value (Aggrecanase-1 mRNA; inducer alone, untreated 2) is reported as 10 fold. The “Fold Induction of mRNA, Collagenase-3” value ([4]; inducer alone, untreated 1) was 36 fold, the “Collagenase-3 gene expression” value ([5]; PDGF 50 ng/ml alone) was 1242 and the “Anti-Phospho-FKHRL1 western blot signal” value [6] was 15838 and 16507.
